Laboratory results published in US9447015B1, “(S)-2′-vinyl-abscisic acid derivatives” (Valent BioSciences Corporation, priority 2015, dated 2016).

Test system: Arabidopsis thaliana seed germination
Experiment: Arabidopsis seed germination assay (promotion of germination in the presence of (S)-ABA)
Assay type: in vivo
Set-up: key to Rating: Arabidopsis seed germination promotion activity: −: Seeds germinated at approximately the same time as those treated with 0.3 ppm of (S)-ABA alone (i.e., treatment with the 2′-vinyl-(S)-ABA derivative showed no measurable effect in this assay configuration).; +: Seeds germinated 1 to 4 days earlier than those treated with 0.3 ppm of (S)-ABA alone.; ++: Seeds germinated 5 to 7 days earlier than those treated with 0.3 ppm of (S)-ABA alone.; +++: Seeds germinated 8 to 10 days earlier than those treated with 0.3 ppm of (S)-ABA alone
Settings: 30 ppm compound in the presence of 0.3 ppm (S)-ABA; scored on day 14
Procedure: To determine whether the (S)-ABA derivatives of the present invention were effective antagonists, germination assays were performed with the model plant Arabidopsis thaliana. If the compounds are found to be antagonists, they may be useful to counter any undesirable side effects of (S)-ABA.
Arabidopsis seed was sterilized by shaking for five minutes in 200 proof ethanol, followed by shaking for five minutes in a 10% bleach solution. The seeds were then washed five times in sterile, distilled, de-ionized water and suspended in 0.1% phytoagar. The tubes containing the seeds were wrapped in aluminum foil and stratified at 4° C. for two days.
All compounds were tested at a concentration of 30 ppm in the presence or absence of 0.3 ppm (S)-ABA, in 24-well plates. For each compound, a 1000 ppm stock solution was prepared in distilled, deionized water containing 5% DMSO. The stock test solution (15 μL) was added to each well, plus or minus 1.5 μL of 100 ppm (S)-ABA in 5% DMSO. Appropriate amounts of distilled, de-ionized water was added to equalize volumes, and 450 μL of ½×Murashige and Skoog media containing 1.2% Bactoagar was then added to each well (final DMSO concentration was 0.5%). When the media solidified, ten to 15 sterile stratified Arabidopsis seeds were distributed into each well using a repeat pipettor. The plates were sealed with surgical tape and placed in a growth chamber running diurnal cycles of 12 hours of light at 24° C. and 12 hours of darkness at 19° C. The plates were scanned on days 3 through 14, and scored on day 14. The (S)-2′-vinyl-substituted ABA derivatives were scored on ability to promote germination in the presence of (S)-ABA. The results are summarized below in “Table 1: Arabidopsis seed germination promotion activity of 2′-vinyl-(S)-ABA derivatives.”

| SMILES | Rating: Arabidopsis seed germination promotion activity |
| --- | --- |
| CC(=C/C(=O)O)/C=C/[C@@]1(O)C(/C=C/c2nccs2)=CC(=O)CC1(C)C [Compound 34] | − |
| CC(=C/C(=O)O)/C=C/[C@@]1(O)C(/C=C/c2ccc(F)c(Cl)c2)=CC(=O)CC1(C)C [Compound 8] | +++ (Seeds germinated 8 to 10 days earlier than those treated with 0.3 ppm of (S)-ABA alone.) |
| CC(=C/C(=O)O)/C=C/[C@@]1(O)C(/C=C/c2cccc(C(F)(F)F)c2)=CC(=O)CC1(C)C [Compound 21] | + (Seeds germinated 1 to 4 days earlier than those treated with 0.3 ppm of (S)-ABA alone.) |
| CC(=C/C(=O)O)/C=C/[C@@]1(O)C(/C=C/c2cccc(C(F)(F)F)c2F)=CC(=O)CC1(C)C [Compound 31] | +++ (Seeds germinated 8 to 10 days earlier than those treated with 0.3 ppm of (S)-ABA alone.) |
| CC(=C/C(=O)O)/C=C/[C@@]1(O)C(/C=C/c2cncs2)=CC(=O)CC1(C)C [Compound 35] | − |
| CC(=C/C(=O)O)/C=C/[C@@]1(O)C(/C=C/c2ccc(C#N)cc2)=CC(=O)CC1(C)C [Compound 3] | ++ (Seeds germinated 5 to 7 days earlier than those treated with 0.3 ppm of (S)-ABA alone.) |
| CC(=C/C(=O)O)/C=C/[C@@]1(O)C(/C=C/c2c(Cl)cccc2Cl)=CC(=O)CC1(C)C [Compound 5] | − |
| CC(=C/C(=O)O)/C=C/[C@@]1(O)C(/C=C/c2ccc(C)cc2)=CC(=O)CC1(C)C [Compound 4] | +++ (Seeds germinated 8 to 10 days earlier than those treated with 0.3 ppm of (S)-ABA alone.) |
| CC(=C/C(=O)O)/C=C/[C@@]1(O)C(/C=C/c2cc(F)cc(C(F)(F)F)c2)=CC(=O)CC1(C)C [Compound 29] | ++ (Seeds germinated 5 to 7 days earlier than those treated with 0.3 ppm of (S)-ABA alone.) |
| CC(=C/C(=O)O)/C=C/[C@@]1(O)C(/C=C/c2cc(F)cc(F)c2)=CC(=O)CC1(C)C [Compound 24] | ++ (Seeds germinated 5 to 7 days earlier than those treated with 0.3 ppm of (S)-ABA alone.) |
| COC(=O)/C=C(C)\C=C\[C@@]1(O)C(/C=C/c2ccc(Cl)c(C(F)(F)F)c2)=CC(=O)CC1(C)C [Compound 14] | ++ (Seeds germinated 5 to 7 days earlier than those treated with 0.3 ppm of (S)-ABA alone.) |
| COC(=O)/C=C(C)\C=C\[C@@]1(O)C(/C=C/c2ccc(OC)c(C#N)c2)=CC(=O)CC1(C)C [Compound 11] | − |
| CC1=CC(=O)CC(C)(C)[C@@]1(O)/C=C/C(C)=C/C(=O)O [(S)-ABA, (S)-abscisic acid, reference compound] | − |
| COC(=O)/C=C(C)\C=C\[C@@]1(O)C(/C=C/c2ccc(Cl)c(F)c2)CC(=O)CC1(C)C (stereo partly shown) [Compound 9] | ++ (Seeds germinated 5 to 7 days earlier than those treated with 0.3 ppm of (S)-ABA alone.) |
| COC(=O)/C=C(C)\C=C\[C@@]1(O)C(/C=C/c2ccccc2F)=CC(=O)CC1(C)C [Compound 10] | − |
| CC(=C/C(=O)O)/C=C/[C@@]1(O)C(/C=C/c2ccncc2)=CC(=O)CC1(C)C [Compound 38] | − |
| CC(=C/C(=O)O)/C=C/[C@@]1(O)C(/C=C/c2cccc(C#N)c2)=CC(=O)CC1(C)C [Compound 32] | − |
| CC(=C/C(=O)O)/C=C/[C@@]1(O)C(/C=C/c2cccc(F)c2)=CC(=O)CC1(C)C [Compound 20] | ++ (Seeds germinated 5 to 7 days earlier than those treated with 0.3 ppm of (S)-ABA alone.) |
| CC(=C/C(=O)O)/C=C/[C@@]1(O)C(/C=C/c2ccccn2)=CC(=O)CC1(C)C [Compound 36] | − |

| SMILES | Rating: Arabidopsis seed germination promotion activity |
| --- | --- |
| COC(=O)/C=C(C)\C=C\[C@@]1(O)C(/C=C/c2cccc(C(F)(F)F)c2Cl)=CC(=O)CC1(C)C [Compound 13] | + (Seeds germinated 1 to 4 days earlier than those treated with 0.3 ppm of (S)-ABA alone.) |
| CC(=C/C(=O)O)/C=C/[C@@]1(O)C(/C=C/c2ccc(Cl)c(Cl)c2)=CC(=O)CC1(C)C [Compound 19] | ++ (Seeds germinated 5 to 7 days earlier than those treated with 0.3 ppm of (S)-ABA alone.) |
| CC(=C/C(=O)O)/C=C/[C@@]1(O)C(/C=C/c2ccc(C(F)(F)F)cc2F)=CC(=O)CC1(C)C [Compound 30] | ++ (Seeds germinated 5 to 7 days earlier than those treated with 0.3 ppm of (S)-ABA alone.) |
| CC(=C/C(=O)O)/C=C/[C@@]1(O)C(/C=C/c2ccc(F)cc2)=CC(=O)CC1(C)C [Compound 2] | + (Seeds germinated 1 to 4 days earlier than those treated with 0.3 ppm of (S)-ABA alone.) |
| COC(=O)/C=C(C)\C=C\[C@@]1(O)C(/C=C/c2ccccc2Cl)=CC(=O)CC1(C)C [Compound 12] | + (Seeds germinated 1 to 4 days earlier than those treated with 0.3 ppm of (S)-ABA alone.) |
| CC(=C/C(=O)O)/C=C/[C@@]1(O)C(/C=C/c2ccc(F)cc2F)=CC(=O)CC1(C)C [Compound 22] | ++ (Seeds germinated 5 to 7 days earlier than those treated with 0.3 ppm of (S)-ABA alone.) |
| CC(=C/C(=O)O)/C=C/[C@@]1(O)C(/C=C/c2cc(Cl)cc(Cl)c2)=CC(=O)CC1(C)C [Compound 16] | ++ (Seeds germinated 5 to 7 days earlier than those treated with 0.3 ppm of (S)-ABA alone.) |
| COC(=O)/C=C(C)\C=C\[C@@]1(O)C(/C=C/c2ccc(Cl)cc2Cl)=CC(=O)CC1(C)C [Compound 15] | ++ (Seeds germinated 5 to 7 days earlier than those treated with 0.3 ppm of (S)-ABA alone.) |
| COc1ccc(C(F)(F)F)cc1/C=C/C1=CC(=O)CC(C)(C)[C@@]1(O)/C=C/C(C)=C\C(=O)O [Compound 28] | ++ (Seeds germinated 5 to 7 days earlier than those treated with 0.3 ppm of (S)-ABA alone.) |
| CC(=C/C(=O)O)/C=C/[C@@]1(O)C(/C=C/c2ccc(C(F)(F)F)cc2)=CC(=O)CC1(C)C [Compound 26] | +++ (Seeds germinated 8 to 10 days earlier than those treated with 0.3 ppm of (S)-ABA alone.) |
| CC(=C/C(=O)O)/C=C/[C@@]1(O)C(/C=C/c2c(F)cccc2Cl)=CC(=O)CC1(C)C [Compound 7] | ++ (Seeds germinated 5 to 7 days earlier than those treated with 0.3 ppm of (S)-ABA alone.) |
| CC(=C/C(=O)O)/C=C/[C@@]1(O)C(/C=C/c2c(F)cccc2F)=CC(=O)CC1(C)C [Compound 6] | − |
| CC(=C/C(=O)O)/C=C/[C@@]1(O)C(/C=C/c2cccc(Cl)c2)=CC(=O)CC1(C)C [Compound 17] | − |
| CC(=C/C(=O)O)/C=C/[C@@]1(O)C(/C=C/c2cccnc2)=CC(=O)CC1(C)C [Compound 37] | − |
| CC(=C/C(=O)O)/C=C/[C@@]1(O)C(/C=C/c2ccco2)=CC(=O)CC1(C)C [Compound 33] | − |
| CC(=C/C(=O)O)/C=C/[C@@]1(O)C(/C=C/c2cc(C(F)(F)F)ccc2F)=CC(=O)CC1(C)C [Compound 27] | ++ (Seeds germinated 5 to 7 days earlier than those treated with 0.3 ppm of (S)-ABA alone.) |
| CC(=C/C(=O)O)/C=C/[C@@]1(O)C(/C=C/c2cc(C(F)(F)F)ccc2Cl)=CC(=O)CC1(C)C [Compound 1] | ++ (Seeds germinated 5 to 7 days earlier than those treated with 0.3 ppm of (S)-ABA alone.) |
| CC(=C/C(=O)O)/C=C/[C@@]1(O)C(/C=C/c2ccc(Cl)cc2)=CC(=O)CC1(C)C [Compound 18] | +++ (Seeds germinated 8 to 10 days earlier than those treated with 0.3 ppm of (S)-ABA alone.) |
| CC(=C/C(=O)O)/C=C/[C@@]1(O)C(/C=C/c2ccccc2C(F)(F)F)=CC(=O)CC1(C)C [Compound 25] | ++ (Seeds germinated 5 to 7 days earlier than those treated with 0.3 ppm of (S)-ABA alone.) |

Same assay, conditions: seed germination assay, 30 ppm with 0.3 ppm (S)-ABA

| SMILES | antagonist nature compared to (S)-ABA |
| --- | --- |
| CC(=C/C(=O)O)/C=C/[C@@]1(O)C(/C=C/c2ccc(F)c(Cl)c2)=CC(=O)CC1(C)C [Compound 8] | antagonists of (S)-ABA |
| CC(=C/C(=O)O)/C=C/[C@@]1(O)C(/C=C/c2cccc(C(F)(F)F)c2F)=CC(=O)CC1(C)C [Compound 31] | antagonists of (S)-ABA |
| CC(=C/C(=O)O)/C=C/[C@@]1(O)C(/C=C/c2ccc(C)cc2)=CC(=O)CC1(C)C [Compound 4] | antagonists of (S)-ABA |
| CC(=C/C(=O)O)/C=C/[C@@]1(O)C(/C=C/c2ccc(C(F)(F)F)cc2)=CC(=O)CC1(C)C [Compound 26] | antagonists of (S)-ABA |
| CC(=C/C(=O)O)/C=C/[C@@]1(O)C(/C=C/c2ccc(Cl)cc2)=CC(=O)CC1(C)C [Compound 18] | antagonists of (S)-ABA |
